Measurements taken from patent US20140369987A1, “DERMASEPTIN B2 USED AS AN INHIBITOR OF THE GROWTH OF A TUMOR” (Centre National de la Recherche Scientifique (C.N. R.S), priority 2009, published 2014).
Ends that are not written are not given here.

What was measured:
[1] = system: tumours induced by injection of PC-3; assay: Growth of PC-3 xenograft tumours in nude mice; type: in vivo
Experimental: Batches of 10 nude mice (nude/nude, Laboratoire IFFA CREDO) were injected with 2×10^6 PC-3 cells. One week after injection of the cells, the animals having a palpable tumour were randomly distributed per cage to be treated by injection into the tumour with 100 μl per day of PBS solution (control batch) or with a solution of dermaseptin B2 diluted in PBS. Dermaseptin B2 was injected at a concentration of 5 mg/kg the first week of treatment, then this dose was reduced to 0.5 mg/kg for 12 days. […] As control, a batch of mice was also treated with Taxol® (paclitaxel, Bristol-Myers Squibb) twice per week via intra-peritoneal injection at 10 mg/kg. The size of the tumours was measured using a calliper twice a week up until sacrifice of the animals 29 days after the beginning of treatment. After sacrifice, the tumours were removed and weighed.

[2] = system: LB-EBV cells; assay: Growth of non-adherent B-lymphoma line LB-EBV, crystal violet cell count; type: cell-based, human; settings: 10 μM; count on 7th day
Experimental: (§1) Dermaseptin B2 was also tested on the growth of two non-adherent lines derived from human B-lymphoma: the Raji and LB-EBV lines. The cells were seeded at 10^4 cells per well in 0.5 ml of RPMI medium supplemented with 2.5% of decomplemented foetal calf serum. 24 hours after seeding, the cells were treated with different concentrations of dermaseptin B2. […] On the 7th day, the cell count was estimated by staining with crystal violet as described previously.

[3] = system: receptor of adenosin A1; settings: cited from earlier work
[4] = system: Raji cells; assay: Growth of non-adherent B-lymphoma line Raji, crystal violet cell count; type: cell-based, human; settings: 10 μM; count on 7th day
Experimental: as §1

[5] = system: Gram+ and Gram− bacteria, yeasts, protozoa and filamentous fungi; settings: micromolar doses; cited from earlier work
[6] = system: PC-3 cells; assay: Annexin V FITC / propidium iodide double labelling, flow cytometry; type: cell-based, human; settings: 2.5 μM
Source text: During the proliferation assays of PC-3 or ABAE cells, in the presence of dermaseptin B2, the rapidly observed inhibitor effect and the non-refringence of the treated cells leads to assuming that dermaseptin B2 could have a cytotoxic role or cell death inducing role rather than blocking the growth of sensitive cells. To determine whether dermaseptin B2 could induce apoptosis of sensitive cells, the inventors conducted double labelling experiments with Annexin V and propidium iodide on PC-3 cells in culture on plastic and treated or not treated with dermaseptin B2. These experiments were followed by flow cytometry analysis of the labelled cells.
For this purpose, the cells were seeded in 6-well plates in the absence or presence of 2.5 μM of dermaseptin B2 for 24 or 72 hours. The cells were then detached, washed with cold PBS and re-suspended in 100 μl of fixing buffer (MACs, Miltenyi Biotec) containing Annexin V FITC for 10 min in the dark. After washings in PBS, the cells were again labelled by incubation in a fixing buffer containing a final concentration of 1 μg/ml of propidium iodide (PI) for 5 min in the dark. After further washings the cells were analyzed by passing through a flow cytometer (FACScan, Becton Dickinson Labware) (FIGS. 10 and 11).

[7] = system: ABAE cells; assay: Formation of pseudo capillaries by ABAE cells on collagen 1 gel (Montessano test); type: cell-based, bovine; settings: 5 μM
Experimental: The effect of dermaseptin B2 on the formation of pseudo capillaries was assessed through use of the Montessano test. This test allows evaluation of the differentiation of ABAE cells to pseudo capillaries when seeded in a monolayer on collagen 1 gel. For this assay, ABAE cells were seeded in 24-well plates on a monolayer of collagen 1 to the proportion of 10^5 cells/well in DMEM medium supplemented with 10% foetal calf serum. 24 hours after seeding, 20 ng/ml of FGF-2 were added to the cells in the absence or presence of varying concentrations of dermaseptin B2. This treatment was renewed for two days and the formation of a network of pseudo capillaries was assessed 24 hours later by observation under phase contrast microscope measuring the number of capillaries formed per field of observation (FIGS. 5C and D).

[8] = system: adult bovine aortic endothelial cells (ABAE); assay: Proliferation of ABAE endothelial cells on plastic; type: cell-based; settings: with 5 ng/ml FGF-2; count on 7th day
Experimental: The angiostatic activity of dermaseptin B2 was assessed for its capacity to inhibit firstly the proliferation of adult bovine aortic endothelial cells (ABAE) on plastic and secondly the formation of pseudo capillaries by these same cells in collagen gel. For the proliferation test the ABAE cells were seeded in 24-well plates at a density of 10^4 cells/well in DMEM medium supplemented with 10% foetal calf serum and 5 ng/ml of FGF-2. […] On the 7th day the cell count was estimated by staining with crystal violet.

[9] = system: PC-3 cells; assay: Colony formation of PC-3 cells in soft agar; type: cell-based, human; settings: 5 μM; 12 days
Experimental: To confirm the inhibition of the cell growth observed on plastic with the PC-3 cells, the inventors tested the effect of dermaseptin B2 on the ability of the PC-3 cells to multiply independently of anchoring by forming colonies in agar. For this assay, the cells were seeded at a density of 2.5×10^3 cells par cm^2 diluted in complete culture medium (RPMI supplemented with 5% foetal calf serum) containing 0.35% agar and varying concentrations of dermaseptin B2, in 12-well dishes containing 1 ml of solidified 0.6% agar. The same variable concentrations of dermaseptin B2 were also added to the complete culture medium deposited on top of the cultures on the day of seeding, and twice per week. After incubation for 12 days at 37° C. in an incubator saturated with water vapour and containing 7% CO2, the colonies having a diameter larger than […] were counted. Each measurement was performed in triplicate and each experiment was repeated three times.

[10] = system: mouse embryo cells (CES)
Experimental: (§2) The anti-proliferative activity of dermaseptin B2 was assessed in vitro on different types of cells: PC-3 adenocarcinoma cells and G1947 human prostatic hyperplasia cells, and on mouse embryo cells (CES). The different types of cells were seeded in 24-well plates at […] in 0.5 ml of culture medium (RPMI supplemented with 5% foetal calf serum for the PC-3 and G1947 cells, or DMEM supplemented with 10% foetal calf serum for the CES cells). After 24 hours, the cells were treated with different doses of dermaseptin B2. The treatment was then renewed at days 3 and 5 after seeding of the cells. On the 6th day, an estimated cell count was performed by staining with crystal violet. The cells were rinsed with PBS, fixed on plastic by dehydration with absolute ethanol, and then stained with a 0.2% solution of crystal violet in 2% ethanol for 15 min. After washing, the cells were solubilised with 1% SDS solution. The optical density (OD) of the crystal violet was measured using a spectrophotometer at 595 nm. A standard range was produced for conversion of OD-number of cells.

[11] = system: G1947 human prostatic hyperplasia cells
Experimental: as §2

Row | Compound | inhibition of tumour growth (tumour volume) compared with non-treated tumours ([1]; intra-peritoneal 10 mg/kg twice per week, 29 days of treatment) [%] | inhibition of growth of LB-EBV cells [2] | effect on binding of agonists with the receptor of adenosin A1 [3] | mice with full disappearance of the tumour ([1]; batches of 10 mice, after sacrifice at day 29) [mice] | inhibition of growth of Raji cells [4] | killing of Gram+ and Gram− bacteria, yeasts, protozoa and filamentous fungi [5] | increase of percentage of cells labelled solely with PI (necrosis) [6] [times] | increase in cells labelled twofold with Annexin V and PI (apoptosis) ([6]; 24 h) | increase of percentage of cells only labelled with Annexin V (early apoptosis) ([6]; 24 h) [times] | percentage of non-labelled cells ([6]; 24 h) | percentage of cells labelled twofold with Annexin V and PI, 72 h versus 24 h ([6]; 72 h) | formation of pseudo capillaries induced by FGF-2 ([7]; 20 ng/ml FGF-2) | cytotoxic effect on the monolayer of ABAE cells ([7]; pseudo capillary assay) | inhibition of growth of ABAE cells [8] | growth of PC-3 cells on soft agar (colonies) [9] | cell detachment during treatment, embryo (CES) cells [10] | cell detachment during treatment, G1947 cells [11]
1 | CC(=O)O[C@H]1C(=O)[C@@]2(C)[C@H]([C@H](OC(=O)c3ccccc3)[C@]3(O)C[C@H](OC(=O)[C@H](O)[C@@H](NC(=O)c4ccccc4)c4ccccc4)C(C)=C1C3(C)C)[C@]1(OC(C)=O)CO[C@@H]1C[C@@H]2O [Taxol®, paclitaxel, reference compound] | 36 |  |  |  |  |  |  |  |  |  |  |  |  |  |  |  | 
2 | GLWSKIKEVGKEAAKAAAKAAGKAALGAVSEAV [dermaseptin B2] |  | about 95 | increase the binding of agonists | 3 | about 95 | rapidly kills | 3 | about 30% | 5 | dropped suddenly in the same proportions | does not change | strongly inhibits | did not have any cytotoxic effect | dose-dependent and full inhibition | fully inhibits growth | no cell detachment was observed | no cell detachment was observed
